Laboratory results: patent US20230065158A1, “OXABICYCLOHEPTANES FOR TREATMENT OF SMALL CELL LUNG CANCER” (Lixte Biotechnology, Inc., priority 2021, published 2023)

Assays:
[1] = tested on: H446 spheroids; assay: H446 spheroids with drugs and T cells, live imaging; format: cell-based; conditions: without T cells, 48 h
Description: FIGS. 7A-7G depict results of T cells infiltration in H446 spheroids in the presence of LB100 and atezolizumab. FIG. 7A: Schematic of the effect of activated T cells on H446 spheroid degradation. At time point 0, single spheroids in 96 well plate were treated with LB-100, atezolizumab and T cells. Beads mimic in vivo T cell activation by two action signals CD3 and CD28. IncuCyte® Live-Cell Analysis System was used for the spheroidal imaging. Right panel presents spheroidal degeneration after 48 h incubation with LB-100, atezolizumab and activated T cells. FIGS. 7B and 7C: Automated image analysis provides metrics (0 h-μm, […]) and spheroid area (yellow-bright field mask). Column bars present mean values of spheroids at 0h. Representative images in bright field mask. […]
Cytotoxic CD8+ cells were isolated from whole blood, buffy coat of healthy donors following the protocol described in the Methods. […] Spheroid survival was monitored for 48 hours and their diameters were measured from phase contrast images. […]
H446 were generated as described in Materials and Methods (Monitoring of spheroid growth and cytotoxicity with the IncuCyte® Live-Cell Analysis System and IncuCyte® Cytotox reagent) following incubation with T cells and drugs. The effect of LB100 and atezolizumab in the presence of T cells was monitored with IncuCyte 3D Multi-Tumor Spheroid assay.

[2] = tested on: H446 spheroids; assay: H446 spheroid growth, IncuCyte Live-Cell Analysis; format: cell-based; conditions: LB100 20 μM, up to 72 hours
Description: FIGS. 2A-2H depict the effect of LB-100 on H446 spheroid growth. FIG. 2A: Morphology of a single spheroid of H446 cells on days one and nine. Spheroids grow continuously and H&E staining is represented. FIG. 2B: Spheroid's growth in response to LB-100 treatment was recorded with IncuCyte Live-Cell Analysis System. FIG. 2C: Cytotoxicity effect of LB100 was recorded with IncuCyte Live-Cell Analysis System in the presence of LB-100 and IncuCyte Cytotox reagent in green fluorescence. […] Scale bar 100 μm. (FIGS. 2E and 2G). Effect of LB100 and carboplatin alone or in combination was monitored using IncuCyte Live Cell system for 70 h.
We further investigated the effect of LB100 and the chemotherapy drugs on spheroids formed by SCLC cells. Three cell lines H524, H69 and H446 were tested. The H524 and H69 cells formed large soft clumps in low-attachment 96 well plates. […] H446 spheroids treated with or without 20 μM LB100 were imaged in brightfield (BF) and using green fluorescence over 72 hours. The size of the spheroids was measured using an automated software algorithm that masked the largest BF in the field of view (label-free, real-time live cell assay for spheroids: IncuCyte bright-field analysis). […]
H446 cells were plated at a density of 10,000 cells per well and spheroid allowed to form (72-hours). […] Spheroids were imaged every 4 hours for 6 days and analyzed using the IncuCyte ZOOM software.

[3] = tested on: H526 cells; conditions: human, 72 h
Description: (§1) To determine specific cytotoxicity, we used Cell Counting Kit-8 (Dojindo Molecular Technologies, Rockville, Md.) as previously described (50).

[4] = tested on: H82 cells; assay: Cell Counting Kit-8 cytotoxicity, H82; conditions: read-out: Cytotoxicity IC50; H82; 72 hours
Description: as §1

With `C[NH+]1CCN(C(=O)C2C(C(=O)O)[C@H]3CC[C@@H]2O3)CC1` (stereo in doubt) [LB-100, 3-[(4-Methylpiperazin-1-yl)carbonyl]-7-oxabicyclo[2.2.1]heptane-2-carboxylic acid] the “effect on spheroids (degeneration), drug alone” value [1] was “moderate effect”, the “spheroid size (bright-field analysis)” value [2] was “spheroid shrinkage” and the IC50 [3] was 7.2 µM.
`N.N.O=C([O-])C1(C(=O)[O-])CCC1.[Pt+2]` [Carboplatin, reference compound] gave an IC50 [4] of 46.5 µM.
